From US8192962B2, “Processes for detecting toxic substances” (Daikin Industries, Ltd., priority 2001, dated 2012)

System: Unknown protein yeast genes
Assay: DNA chip mRNA expression in yeast, unknown protein yeast genes (Table 1)
Type: cell-based, Saccharomyces cerevisiae S288C
Outline: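 Values are treated/untreated fluorescence ratios from a whole-genome yeast DNA chip hybridized over 12 hours at 65° C with Cy3- or Cy5-labelled cDNA from poly(A) mRNA. Log-phase S288C yeast in YPD at 25° C had received a single toxic chemical for two hours, dosed to slow growth without killing.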

SMILES: O=[N+]([O-])c1cc[n+]([O-])c2ccccc12 [(5), 4-nitroquinolin-N-oxide]
- The level of expressed mRNA in the presence of chemical substance/The level of expressed mRNA in the absence of chemical substance (yeast gene YKL071W): 1.1
- The level of expressed mRNA in the presence of chemical substance/The level of expressed mRNA in the absence of chemical substance (yeast gene YKL086W, incubated two hours with chemical substance): 0.8
- The level of expressed mRNA in the presence of chemical substance/The level of expressed mRNA in the absence of chemical substance (yeast gene YKL151C, incubated two hours with chemical substance): 1.0
- The level of expressed mRNA in the presence of chemical substance/The level of expressed mRNA in the absence of chemical substance (yeast gene YKL153W, incubated two hours with chemical substance): 1.0
- The level of expressed mRNA in the presence of chemical substance/The level of expressed mRNA in the absence of chemical substance (yeast gene YKL195W, incubated two hours with chemical substance): 1.9
- The level of expressed mRNA in the presence of chemical substance/The level of expressed mRNA in the absence of chemical substance (yeast gene YKR091W, incubated two hours with chemical substance): 1.6
- The level of expressed mRNA in the presence of chemical substance/The level of expressed mRNA in the absence of chemical substance (yeast gene YLR054C, incubated two hours with chemical substance): 1.3
- The level of expressed mRNA in the presence of chemical substance/The level of expressed mRNA in the absence of chemical substance (yeast gene YLR149C, incubated two hours with chemical substance): 0.8
- The level of expressed mRNA in the presence of chemical substance/The level of expressed mRNA in the absence of chemical substance (yeast gene YLR152C, incubated two hours with chemical substance): 1.1
- The level of expressed mRNA in the presence of chemical substance/The level of expressed mRNA in the absence of chemical substance (yeast gene YLR194C, incubated two hours with chemical substance): 1.0
- The level of expressed mRNA in the presence of chemical substance/The level of expressed mRNA in the absence of chemical substance (yeast gene YLR324W, incubated two hours with chemical substance): 1.3
- The level of expressed mRNA in the presence of chemical substance/The level of expressed mRNA in the absence of chemical substance (yeast gene YLR339C): 1.3
- The level of expressed mRNA in the presence of chemical substance/The level of expressed mRNA in the absence of chemical substance (yeast gene YLR350W, incubated two hours with chemical substance): 0.8
- The level of expressed mRNA in the presence of chemical substance/The level of expressed mRNA in the absence of chemical substance (yeast gene YLR387C, incubated two hours with chemical substance): 1.3
- The level of expressed mRNA in the presence of chemical substance/The level of expressed mRNA in the absence of chemical substance (yeast gene YLR460C): 1.3
- The level of expressed mRNA in the presence of chemical substance/The level of expressed mRNA in the absence of chemical substance (yeast gene YML117W, incubated two hours with chemical substance): 0.8
- The level of expressed mRNA in the presence of chemical substance/The level of expressed mRNA in the absence of chemical substance (yeast gene YMR007W): 1.3
- The level of expressed mRNA in the presence of chemical substance/The level of expressed mRNA in the absence of chemical substance (yeast gene YMR009W, incubated two hours with chemical substance): 1.9
- The level of expressed mRNA in the presence of chemical substance/The level of expressed mRNA in the absence of chemical substance (yeast gene YMR067C, incubated two hours with chemical substance): 1.1
- The level of expressed mRNA in the presence of chemical substance/The level of expressed mRNA in the absence of chemical substance (yeast gene YMR090W): 0.7
- The level of expressed mRNA in the presence of chemical substance/The level of expressed mRNA in the absence of chemical substance (yeast gene YMR095C, incubated two hours with chemical substance): 0.9
- The level of expressed mRNA in the presence of chemical substance/The level of expressed mRNA in the absence of chemical substance (yeast gene YMR097C, incubated two hours with chemical substance): 0.7
- The level of expressed mRNA in the presence of chemical substance/The level of expressed mRNA in the absence of chemical substance (yeast gene YMR102C, incubated two hours with chemical substance): 1.2
- The level of expressed mRNA in the presence of chemical substance/The level of expressed mRNA in the absence of chemical substance (yeast gene YMR107W, incubated two hours with chemical substance): 1.1
- The level of expressed mRNA in the presence of chemical substance/The level of expressed mRNA in the absence of chemical substance (yeast gene YMR180C, incubated two hours with chemical substance): 1.0
- The level of expressed mRNA in the presence of chemical substance/The level of expressed mRNA in the absence of chemical substance (yeast gene YMR184W, incubated two hours with chemical substance): 0.8
- The level of expressed mRNA in the presence of chemical substance/The level of expressed mRNA in the absence of chemical substance (yeast gene YMR191W, incubated two hours with chemical substance): 1.5
- The level of expressed mRNA in the presence of chemical substance/The level of expressed mRNA in the absence of chemical substance (yeast gene YMR295C, incubated two hours with chemical substance): 1.4
- The level of expressed mRNA in the presence of chemical substance/The level of expressed mRNA in the absence of chemical substance (yeast gene YMR316W, incubated two hours with chemical substance): 1.1
- The level of expressed mRNA in the presence of chemical substance/The level of expressed mRNA in the absence of chemical substance (yeast gene YNL044W, incubated two hours with chemical substance): 1.2
- The level of expressed mRNA in the presence of chemical substance/The level of expressed mRNA in the absence of chemical substance (yeast gene YNL074C, incubated two hours with chemical substance): 1.3
- The level of expressed mRNA in the presence of chemical substance/The level of expressed mRNA in the absence of chemical substance (yeast gene YNL092W, incubated two hours with chemical substance): 0.9
- The level of expressed mRNA in the presence of chemical substance/The level of expressed mRNA in the absence of chemical substance (yeast gene YNL115C, incubated two hours with chemical substance): 0.8
- The level of expressed mRNA in the presence of chemical substance/The level of expressed mRNA in the absence of chemical substance (yeast gene YNL156C, incubated two hours with chemical substance): 1.6
- The level of expressed mRNA in the presence of chemical substance/The level of expressed mRNA in the absence of chemical substance (yeast gene YNL234W, incubated two hours with chemical substance): 1.7
- The level of expressed mRNA in the presence of chemical substance/The level of expressed mRNA in the absence of chemical substance (yeast gene YNL281W, incubated two hours with chemical substance): 1.7
- The level of expressed mRNA in the presence of chemical substance/The level of expressed mRNA in the absence of chemical substance (yeast gene YNL305C, incubated two hours with chemical substance): 1.3
- The level of expressed mRNA in the presence of chemical substance/The level of expressed mRNA in the absence of chemical substance (yeast gene YNR068C, incubated two hours with chemical substance): 1.7
- The level of expressed mRNA in the presence of chemical substance/The level of expressed mRNA in the absence of chemical substance (yeast gene YOL032W, incubated two hours with chemical substance): 1.4
- The level of expressed mRNA in the presence of chemical substance/The level of expressed mRNA in the absence of chemical substance (yeast gene YOL036W, incubated two hours with chemical substance): 1.2
- The level of expressed mRNA in the presence of chemical substance/The level of expressed mRNA in the absence of chemical substance (yeast gene YOL047C, incubated two hours with chemical substance): 1.4
- The level of expressed mRNA in the presence of chemical substance/The level of expressed mRNA in the absence of chemical substance (yeast gene YOL071W, incubated two hours with chemical substance): 0.9
- The level of expressed mRNA in the presence of chemical substance/The level of expressed mRNA in the absence of chemical substance (yeast gene YOL082W, incubated two hours with chemical substance): 1.5
- The level of expressed mRNA in the presence of chemical substance/The level of expressed mRNA in the absence of chemical substance (yeast gene YOL083W, incubated two hours with chemical substance): 1.4
- The level of expressed mRNA in the presence of chemical substance/The level of expressed mRNA in the absence of chemical substance (yeast gene YOL117W, incubated two hours with chemical substance): 1.7
- The level of expressed mRNA in the presence of chemical substance/The level of expressed mRNA in the absence of chemical substance (yeast gene YOL131W, incubated two hours with chemical substance): 1.5
- The level of expressed mRNA in the presence of chemical substance/The level of expressed mRNA in the absence of chemical substance (yeast gene YOL150C): 1.0
- The level of expressed mRNA in the presence of chemical substance/The level of expressed mRNA in the absence of chemical substance (yeast gene YOL162W, incubated two hours with chemical substance): 0.9
- The level of expressed mRNA in the presence of chemical substance/The level of expressed mRNA in the absence of chemical substance (yeast gene YOR019W, incubated two hours with chemical substance): 1.4
- The level of expressed mRNA in the presence of chemical substance/The level of expressed mRNA in the absence of chemical substance (yeast gene YOR129C): 1.3
- The level of expressed mRNA in the presence of chemical substance/The level of expressed mRNA in the absence of chemical substance (yeast gene YOR197W, incubated two hours with chemical substance): 0.6
- The level of expressed mRNA in the presence of chemical substance/The level of expressed mRNA in the absence of chemical substance (yeast gene YPL087W, incubated two hours with chemical substance): 0.6
- The level of expressed mRNA in the presence of chemical substance/The level of expressed mRNA in the absence of chemical substance (yeast gene YPL196W, incubated two hours with chemical substance): 1.5
- The level of expressed mRNA in the presence of chemical substance/The level of expressed mRNA in the absence of chemical substance (yeast gene YPL206C, incubated two hours with chemical substance): 0.7
- The level of expressed mRNA in the presence of chemical substance/The level of expressed mRNA in the absence of chemical substance (yeast gene YPL222W, incubated two hours with chemical substance): 1.2
- The level of expressed mRNA in the presence of chemical substance/The level of expressed mRNA in the absence of chemical substance (yeast gene YPL272C): 1.3
- The level of expressed mRNA in the presence of chemical substance/The level of expressed mRNA in the absence of chemical substance (yeast gene YPR023C, incubated two hours with chemical substance): 1.1
- The level of expressed mRNA in the presence of chemical substance/The level of expressed mRNA in the absence of chemical substance (yeast gene YPR150W): 1.3
- The level of expressed mRNA in the presence of chemical substance/The level of expressed mRNA in the absence of chemical substance (yeast gene YPR151C, incubated two hours with chemical substance): 1.3
